Assay results taken from patent publication US9856240B2, “Compounds that modulate intracellular calcium” (CalciMedica, Inc., priority 2011, dated 2018).

How the values were obtained:
[1] = target: T1, recombinant human STIM1 and Orai1 (HEK-293 cells) (Homo sapiens, UniProt Q96D31); test: Fluorescence-based assay of store-operated calcium entry in Orai1/STIM1 stable cells; type: cell-based; set-up: key to Orai1/STIM1 (IC50, μmol): A < 0.6 μmol; 0.6 μmol ≦ B ≦ 1.2 μmol; C > 1.2 μmol; — = no fit; conditions: for IC50: FLIPR fluo-4, read-out: Orai1/STIM1 (IC50, μmol); for Orai1/STIM1 (IC50, μmol): FLIPR fluo-4
T1 construct: expressed in transfected cells; host or cells: HEK-293 cells stably expressing both proteins
T1 sequence (Q96D31 whole entry): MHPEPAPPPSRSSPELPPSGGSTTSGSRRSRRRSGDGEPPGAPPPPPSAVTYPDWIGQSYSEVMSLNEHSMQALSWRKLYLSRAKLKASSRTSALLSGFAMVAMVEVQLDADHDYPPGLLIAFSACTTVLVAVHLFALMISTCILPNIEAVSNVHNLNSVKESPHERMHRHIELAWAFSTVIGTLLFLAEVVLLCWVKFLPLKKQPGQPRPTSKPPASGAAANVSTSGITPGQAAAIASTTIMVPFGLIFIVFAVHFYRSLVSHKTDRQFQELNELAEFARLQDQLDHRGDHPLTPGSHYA
Description: A. Fluorescence-Based Assay of Store-Operated Calcium Entry in Orai1/STIM1 Stable Cells.
Cells stably expressing recombinant human STIM1 and Orai1 are generated by transfecting a human Orai1 expression plasmid (pcDNA3.1-Orai1-cmyc) into HEK-293 cells stably overexpressing human STIM1 (Roos et al. 2005 JCB 169(3): 435-445). Colonies of cells stably expressing both STIM1 and Orai1 proteins are selected and then subcloned by limiting dilution. Cells were cultured at 37° C./6% CO2 in complete medium with 10% FBS and appropriate selection markers.
The day prior to performing the assay Orai1/STIM1 stable cells are plated in 50 μL of complete medium at 90-95% confluence in a 384 well plate. Cells are grown at 37° C./6% CO2 overnight. On the day of the assay, 1.5 μM fluo-4-AM (Invitrogen) in complete medium is added to the cells, which are then incubated for 1 hour at RT. Cells are washed once in Ca^2+-free HBSS (Hank's buffered saline solution) and 35 μl of Ca^2+-free HBSS is added to each well. Test compounds are added to wells in a 10 μL Ca^2+-free HBSS solution, prepared at 4.5× the desired final concentration, and incubated for 30 minutes at RT. The initial baseline fluorescence signal is then measured with a FLIPR^384 (Molecular Devices) plate reader. Calcium entry is initiated by adding 5 μl of 10× CaCl2 (10 mM) in HBSS, and changes in cellular fluorescence are measured with the FLIPR^384 plate reader. In each well, the magnitude of the fluorescence signal as a result of calcium entry into the cell is determined by calculating the difference between the peak fluorescence signal measured after calcium addition and the initial baseline fluorescence signal (designated Peak-Basal). IC50 values are typically calculated as the concentration that inhibited 50% of the Peak-Basal signal (Table A).

[2] = system: store-operated calcium entry in RBL-2H3 cells; test: Fluorescence-based assay of store-operated calcium entry in RBL-2H3 cells; type: cell-based; conditions: Rattus norvegicus, thapsigargin, FLIPR Fluo-4, read-out: RBL-2H3 (IC50, μmol)
Description: B. Fluorescence-Based Assay of Store-Operated Calcium Entry in RBL-2H3 Cells.
RBL-2H3 cells are obtained from ATCC and maintained in complete medium with 10% FBS at 37° C./6% CO2.
The day prior to performing the assay, RBL-2H3 cells are plated in 50 μL of complete medium in a 384 well plate. Cells are grown at 37° C./6% CO2 overnight and grow to 50-60% confluence by the next day. On the assay day, 1.5 μM Fluo-4-AM dye (Invitrogen) in complete medium is added and incubated for 1 hour at RT. Cells are washed twice in Ca^2+-free HBSS buffer and 35 μL Ca^2+-free HBSS buffer is added to each well. 10 μL of a test compound prepared in a Ca^2+-free HBSS solution at 4.5× of the desired concentration is added to a well and incubated for 5 minutes at RT. 10 μL of thapsigargin prepared in a Ca^2+-free HBSS solution at 5.5× of the desired concentration (5.5 uM) is added to each well and incubated for an additional 25 minutes. The initial baseline fluorescence signal is measured with a FLIPR^384 (Molecular Devices) plate reader. 5 μL of 12× calcium in HBSS (12 mM) is added and changes in cellular fluorescence are measured with the FLIPR^384 plate reader. In each well, the change in the fluorescent signal as a function of time due to calcium entry into the cell is determined by calculating the difference between the fluorescent signal measured 7 seconds after calcium addition and the initial baseline fluorescence signal at time zero (t=0). This parameter is designated Upslope. The IC50 value is calculated as the concentration at which 50% of the Upslope is inhibited.

Structure (SMILES) | IC50 [1] [nM] | IC50 [2] [nM] | Orai1/STIM1 (IC50, μmol) [1]
Cc1cc(C(=O)Nc2cnc(-c3cc4c(cc3Cl)OC(F)(F)O4)cn2)n(C)n1 [Example 27, N-(5-(6-chloro-2,2-difluorobenzo[d][1,3]dioxol-5-yl)pyrazin-2-yl)-1,3-dimethyl-1H-pyrazole-5-carboxamide] | 600 to 1200 | > 1200 | 
Cc1cc2c(cc1-c1cnc(NC(=O)c3c(Cl)c(C(F)(F)F)nn3C)cn1)OC(F)(F)O2 [Example 37, 4-chloro-N-(5-(2,2-difluoro-6-methylbenzo[d][1,3]dioxol-5-yl)pyrazin-2-yl)-1-methyl-3-(trifluoromethyl)-1H-pyrazole-5-carboxamide] | 600 to 1200 | < 600 | 
Cc1cc2c(cc1-c1cnc(NC(=O)c3c(C)noc3C)cn1)OC(F)(F)O2 [Example 38, N-(5-(2,2-difluoro-6-methylbenzo[d][1,3]dioxol-5-yl)pyrazin-2-yl)-3,5-dimethylisoxazole-4-carboxamide] | > 1200 | < 600 | 
Cn1nc(C(F)(F)F)cc1-c1cnc(NC(=O)c2c(Cl)cnn2C)cn1 [Example 39, 4-chloro-1-methyl-N-(5-(1-methyl-3-(trifluoromethyl)-1H-pyrazol-5-yl)pyrazin-2-yl)-1H-pyrazole-5-carboxamide] | > 1200 | > 1200 | 
Cc1nn(C)c(C(=O)Nc2cnc(-c3cc(C(F)(F)F)nn3C)cn2)c1Cl [Example 40, 4-chloro-1,3-dimethyl-N-(5-(1-methyl-3-(trifluoromethyl)-1H-pyrazol-5-yl)pyrazin-2-yl)-1H-pyrazole-5-carboxamide] | > 1200 | > 1200 | 
Cn1nc(C(F)(F)F)cc1-c1cnc(NC(=O)c2c(Cl)c(C(F)(F)F)nn2C)cn1 [Example 41, 4-chloro-1-methyl-N-(5-(1-methyl-3-(trifluoromethyl)-1H-pyrazol-5-yl)pyrazin-2-yl)-3-(trifluoromethyl)-1H-pyrazole-5-carboxamide] | > 1200 | > 1200 | 
Cc1noc(C)c1C(=O)Nc1cnc(-c2cc(C(F)(F)F)nn2C)cn1 [Example 42, 3,5-dimethyl-N-(5-(1-methyl-3-(trifluoromethyl)-1H-pyrazol-5-yl)pyrazin-2-yl)isoxazole-4-carboxamide] | > 1200 | > 1200 | 
O=C(Nc1ncc(Oc2ccccc2C(F)(F)F)s1)c1c(F)cccc1F [Example 43, (2,6-difluorophenyl)-N-{5-[2-(trifluoromethyl)phenoxy](1,3-thiazol-2-yl)}carboxamide] | > 1200 | 600 to 1200 | 

Second part, the compound after the results:

IC50 [1] [nM] | IC50 [2] [nM] | Orai1/STIM1 (IC50, μmol) [1] | Structure (SMILES)
< 600 | < 600 |  | Cc1nocc1C(=O)Nc1ccc(-c2cc3c(cc2Cl)OC(F)(F)O3)cn1 [Example 18, N-(5-(6-chloro-2,2-difluorobenzo[d][1,3]dioxol-5-yl)pyridin-2-yl)-3-methylisoxazole-4-carboxamide]
< 600 | < 600 |  | Cc1cnoc1C(=O)Nc1ccc(-c2cc3c(cc2Cl)OC(F)(F)O3)cn1 [Example 20, N-(5-(6-chloro-2,2-difluorobenzo[d][1,3]dioxol-5-yl)pyridin-2-yl)-4-methylisoxazole-5-carboxamide]
 | < 600 | — | Cn1nc(C(F)(F)F)c(Cl)c1C(=O)Nc1cnc(-c2cc3c(cc2Cl)OC(F)(F)O3)cn1 [Example 24, 4-chloro-N-(5-(6-chloro-2,2-difluorobenzo[d][1,3]dioxol-5-yl)pyrazin-2-yl)-1-methyl-3-(trifluoromethyl)-1H-pyrazole-5-carboxamide]
600 to 1200 | < 600 |  | Cc1onc(C(=O)Nc2cnc(-c3cc4c(cc3Cl)OC(F)(F)O4)cn2)c1C [Example 25, N-(5-(6-chloro-2,2-difluorobenzo[d][1,3]dioxol-5-yl)pyrazin-2-yl)-4,5-dimethylisoxazole-3-carboxamide]
< 600 | < 600 |  | Cn1ncc(Cl)c1C(=O)Nc1cnc(-c2cc3c(cc2Cl)OC(F)(F)O3)cn1 [Example 29, 4-chloro-N-(5-(6-chloro-2,2-difluorobenzo[d][1,3]dioxol-5-yl)pyrazin-2-yl)-1-methyl-1H-pyrazole-5-carboxamide]
600 to 1200 | < 600 |  | Cc1noc(C)c1C(=O)Nc1cnc(-c2cc3c(cc2Cl)OC(F)(F)O3)cn1 [Example 31, N-(5-(6-chloro-2,2-difluorobenzo[d][1,3]dioxol-5-yl)pyrazin-2-yl)-3,5-dimethylisoxazole-4-carboxamide]
< 600 | < 600 |  | CCn1nccc1C(=O)Nc1cnc(-c2cc3c(cc2Cl)OC(F)(F)O3)cn1 [Example 32, N-(5-(6-chloro-2,2-difluorobenzo[d][1,3]dioxol-5-yl)pyrazin-2-yl)-1-ethyl-1H-pyrazole-5-carboxamide]
 | < 600 | — | O=C(Nc1cnc(-c2cc3c(cc2Cl)OC(F)(F)O3)cn1)c1ccnn1C(F)F [Example 33, N-(5-(6-chloro-2,2-difluorobenzo[d][1,3]dioxol-5-yl)pyrazin-2-yl)-1-(difluoromethyl)-1H-pyrazole-5-carboxamide]
600 to 1200 | < 600 |  | Cc1cc2c(cc1-c1ccc(NC(=O)c3cccn3C)nc1)OC(F)(F)O2 [Example 34, N-(5-(2,2-difluoro-6-methylbenzo[d][1,3]dioxol-5-yl)pyridin-2-yl)-1-methyl-1H-pyrrole-2-carboxamide]
< 600 | < 600 |  | Cc1cc2c(cc1-c1cnc(NC(=O)c3c(Cl)cnn3C)cn1)OC(F)(F)O2 [Example 35, 4-chloro-N-(5-(2,2-difluoro-6-methylbenzo[d][1,3]dioxol-5-yl)pyrazin-2-yl)-1-methyl-1H-pyrazole-5-carboxamide]
